Data from patent US20260355323A1, “CEREBLON-RECRUITING BCL-XL/BCL-2 DUAL DEGRADERS” (University of Florida Research Foundation, Incorporated, priority 2022, published 2026).
pEC50: −log10 of the molar value.

Columns and labels:
[1] = system: MOLT-4 acute lymphoblastic leukemia cells; experiment: Cell viability, tetrazolium-based MTS assay, MOLT-4; conditions: Homo sapiens, MOLT-4, 48 h; read-out: Anti-Cancer Activity EC50 (48 hr), MOLT-4
Description: (§1) Acute lymphoblastic leukemia cells (MOLT-4 and RS4;11) were incubated with increasing concentrations of Bcl-xL/Bcl-2 degraders for 48 h. Cell viability was measured by tetrazolium-based MTS assay.

[2] = system: RS4;11 acute lymphoblastic leukemia cells; experiment: Cell viability, tetrazolium-based MTS assay, RS4;11; conditions: Homo sapiens, RS4;11, 48 h, read-out: Anti-Cancer Activity EC50 (48 hr), RS4
Description: as §1

[3] = system: WI-38 irradiation-induced senescent cells (IR-SC); experiment: Senolytic activity, cell viability (PrestoBlue HS), WI-38 IR-SC; assay type: cell-based; conditions: Homo sapiens, 72 h
Description: To induce senescence in WI-38 and HUVEC, cells were subjected to x-ray irradiation at 20 Gray using X-RAD 320 biological irradiator. Following between 10 to 15 days after irradiation, senescence was induced in cells, and irradiation-induced senescent cells (IR-SC) were then used for cell viability and Western blotting tests.
(§2) WI-38 and HUVEC cells were incubated with increasing concentrations of degraders for 72 h. Cell viability was measured using PrestoBlue HS cell viability reagent.

WI-38 NC = experiment: Senolytic activity, cell viability (PrestoBlue HS), WI-38 NC; assay type: cell-based; conditions: Homo sapiens, 72 h
Description: as §2

**Q.** With `CC1(CN2CCN(C(=O)CN3CCN(C(=O)CNc4cccc5c4C(=O)N(C4CCC(=O)NC4=O)C5=O)CC3)CC2)CCC(c2ccc(Cl)cc2)=C(CN2CCN(c3ccc(C(=O)NS(=O)(=O)c4ccc(N[C@H](CCN5CCOCC5)CSc5ccccc5)c(S(=O)(=O)C(F)(F)F)c4)cc3)CC2)C1` (stereo partly drawn) [Compound 16, 4-(4-((4′-chloro-4-((4-(2-(4-((2-(2,6-dioxopiperidin-3-yl)-1,3-dioxoisoindolin-4-yl)glycyl)piperazin-1-yl)acetyl)piperazin-1-yl)methyl)-4-methyl-3,4,5,6-tetrahydro-[1,1′-biphenyl]-2-yl)methyl)piperazin-1-yl)-N-((4-(((R)-4-morpholino-1-(phenylthio)butan-2-yl)amino)-3-((trifluoromethyl)sulfonyl)phenyl)sulfonyl)benzamide] as the compound, how does the pEC50 [1] read?
**A.** The pEC50 was over 9.00.

**Q.** What about the pEC50 [2] of the same compound?
**A.** The pEC50 was over 9.00.

**Q.** And the pEC50 [3]?
**A.** The pEC50 was 7.00 to 8.00.

**Q.** And the pEC50 (WI-38 NC)?
**A.** The pEC50 was under 5.00.

**Q.** With `CC1(CN2CCN(C(=O)CN3CCN(C(=O)CCCCNc4cccc5c4C(=O)N(C4CCC(=O)NC4=O)C5=O)CC3)CC2)CCC(c2ccc(Cl)cc2)=C(CN2CCN(c3ccc(C(=O)NS(=O)(=O)c4ccc(N[C@H](CCN5CCOCC5)CSc5ccccc5)c(S(=O)(=O)C(F)(F)F)c4)cc3)CC2)C1` (stereo partly drawn) [Compound 14, 4-(4-((4′-chloro-4-((4-(2-(4-(5-((2-(2,6-dioxopiperidin-3-yl)-1,3-dioxoisoindolin-4-yl)amino)pentanoyl)piperazin-1-yl)acetyl)piperazin-1-yl)methyl)-4-methyl-3,4,5,6-tetrahydro-[1,1′-biphenyl]-2-yl)methyl)piperazin-1-yl)-N-((4-(((R)-4-morpholino-1-(phenylthio)butan-2-yl)amino)-3-((trifluoromethyl)sulfonyl)phenyl)sulfonyl)benzamide] as the compound, how does the pEC50 [1] read?
**A.** Its pEC50 is over 9.00.

**Q.** What about the pEC50 [2] of the same compound?
**A.** The pEC50 was over 9.00.

**Q.** What about the pEC50 [3] of the same compound?
**A.** Its pEC50 is 4.00 to 5.00.

**Q.** What about the pEC50 (WI-38 NC) of the same compound?
**A.** The pEC50 was under 5.00.

**Q.** Which results are given for `C[C@@]1(CN2CCN(C(=O)CN3CCC(C#Cc4ccc5c(c4)CN(C4CCC(=O)NC4=O)C5=O)CC3)CC2)CCC(c2ccc(Cl)cc2)=C(CN2CCN(c3ccc(C(=O)NS(=O)(=O)c4ccc(N[C@H](CCN5CCCOCC5)CSc5ccccc5)c(S(=O)(=O)C(F)(F)F)c4)cc3)CC2)C1` (stereo partly drawn) [Compound 5, N-((4-(((R)-4-(1,4-oxazepan-4-yl)-1-(phenylthio)butan-2-yl)amino)-3-((trifluoromethyl)sulfonyl)phenyl)sulfonyl)-4-(4-(((4R)-4′-chloro-4-((4-(2-(4-((2-(2,6-dioxopiperidin-3-yl)-1-oxoisoindolin-5-yl)ethynyl)piperidin-1-yl)acetyl)piperazin-1-yl)methyl)-4-methyl-3,4,5,6-tetrahydro-[1,1′-biphenyl]-2-yl)methyl)piperazin-1-yl)benzamide]?
**A.** pEC50 [1]: > 9.00; pEC50 [2]: > 9.00; pEC50 [3]: 7.00 to 8.00; pEC50 (WI-38 NC): < 5.00

**Q.** `C[C@@]1(CN2CCN(C(=O)CN3CCN(CCCc4ccc5c(c4)CN(C4CCC(=O)NC4=O)C5=O)CC3)CC2)CCC(c2ccc(Cl)cc2)=C(CN2CCN(c3ccc(C(=O)NS(=O)(=O)c4ccc(N[C@H](CCN5CCCOCC5)CSc5ccccc5)c(S(=O)(=O)C(F)(F)F)c4)cc3)CC2)C1` (stereo partly drawn) [Compound 6, N-((4-(((R)-4-(1,4-oxazepan-4-yl)-1-(phenylthio)butan-2-yl)amino)-3-((trifluoromethyl)sulfonyl)phenyl)sulfonyl)-4-(4-(((4R)-4′-chloro-4-((4-(2-(4-(3-(2-(2,6-dioxopiperidin-3-yl)-1-oxoisoindolin-5-yl)propyl)piperazin-1-yl)acetyl)piperazin-1-yl)methyl)-4-methyl-3,4,5,6-tetrahydro-[1,1′-biphenyl]-2-yl)methyl)piperazin-1-yl)benzamide] was tested. Which pEC50 [1] did it give?
**A.** Its pEC50 is over 9.00.

**Q.** What about the pEC50 [2] of the same compound?
**A.** The pEC50 was over 9.00.

**Q.** And the pEC50 [3]?
**A.** Its pEC50 is 8.00 to 9.00.

**Q.** What about the pEC50 (WI-38 NC) of the same compound?
**A.** Its pEC50 is under 5.00.

**Q.** `C[C@@]1(CN2CCN(C(=O)CN3CCC(CCN4CCN(c5ccc6c(c5)CN(C5CCC(=O)NC5=O)C6=O)CC4)CC3)CC2)CCC(c2ccc(Cl)cc2)=C(CN2CCN(c3ccc(C(=O)NS(=O)(=O)c4ccc(N[C@H](CCN5CCCOCC5)CSc5ccccc5)c(S(=O)(=O)C(F)(F)F)c4)cc3)CC2)C1` (stereo partly drawn) [Compound 10, N-((4-(((R)-4-(1,4-oxazepan-4-yl)-1-(phenylthio)butan-2-yl)amino)-3-((trifluoromethyl)sulfonyl)phenyl)sulfonyl)-4-(4-(((4R)-4′-chloro-4-((4-(2-(4-(2-(4-(2-(2,6-dioxopiperidin-3-yl)-1-oxoisoindolin-5-yl)piperazin-1-yl)ethyl)piperidin-1-yl)acetyl)piperazin-1-yl)methyl)-4-methyl-3,4,5,6-tetrahydro-[1,1′-biphenyl]-2-yl)methyl)piperazin-1-yl)benzamide] was tested. Which pEC50 [1] did it give?
**A.** The pEC50 was over 9.00.

**Q.** What about the pEC50 [2] of the same compound?
**A.** The pEC50 was over 9.00.

**Q.** And the pEC50 [3]?
**A.** Its pEC50 is 7.00 to 8.00.

**Q.** And the pEC50 (WI-38 NC)?
**A.** Its pEC50 is under 5.00.

**Q.** What does the source list for `C[C@@]1(CN2CCN(C(=O)CCCCCN3CCN(c4ccc5c(c4)CN(C4CCC(=O)NC4=O)C5=O)CC3)CC2)CCC(c2ccc(Cl)cc2)=C(CN2CCN(c3ccc(C(=O)NS(=O)(=O)c4ccc(N[C@H](CCN5CCCOCC5)CSc5ccccc5)c(S(=O)(=O)C(F)(F)F)c4)cc3)CC2)C1` (stereo partly drawn) [Compound 3, N-((4-(((R)-4-(1,4-oxazepan-4-yl)-1-(phenylthio)butan-2-yl)amino)-3-((trifluoromethyl)sulfonyl)phenyl)sulfonyl)-4-(4-(((4R)-4′-chloro-4-((4-(6-(4-(2-(2,6-dioxopiperidin-3-yl)-1-oxoisoindolin-5-yl)piperazin-1-yl)hexanoyl)piperazin-1-yl)methyl)-4-methyl-3,4,5,6-tetrahydro-[1,1′-biphenyl]-2-yl)methyl)piperazin-1-yl)benzamide]?
**A.** pEC50 [1]: > 9.00; pEC50 [2]: > 9.00; pEC50 (WI-38 NC): < 5.00

**Q.** With `C[C@@]1(CN2CC(CN3CC4CC3CN4c3ccc4c(c3)CN(C3CCC(=O)NC3=O)C4=O)C2)CCC(c2ccc(Cl)cc2)=C(CN2CCN(c3ccc(C(=O)NS(=O)(=O)c4ccc(N[C@H](CCN5CCCOCC5)CSc5ccccc5)c(S(=O)(=O)C(F)(F)F)c4)cc3)CC2)C1` (stereo partly drawn) [Compound 131, N-((4-(((R)-4-(1,4-oxazepan-4-yl)-1-(phenylthio)butan-2-yl)amino)-3-((trifluoromethyl)sulfonyl)phenyl)sulfonyl)-4-(4-(((4R)-4′-chloro-4-((3-((5-(2-(2,6-dioxopiperidin-3-yl)-1-oxoisoindolin-5-yl)-2,5-diazabicyclo[2.2.1]heptan-2-yl)methyl)azetidin-1-yl)methyl)-4-methyl-3,4,5,6-tetrahydro-[1,1′-biphenyl]-2-yl)methyl)piperazin-1-yl)benzamide] as the compound, how does the pEC50 [1] read?
**A.** Its pEC50 is 8.00 to 9.00.

**Q.** What about the pEC50 [2] of the same compound?
**A.** The pEC50 was 8.00 to 9.00.

**Q.** What about the pEC50 (WI-38 NC) of the same compound?
**A.** The pEC50 was under 5.00.

**Q.** How did the pEC50 [1] turn out when `C[C@@]1(CN2CCN(CC#Cc3ccc4c(c3)CN(C3CCC(=O)NC3=O)C4=O)CC2)CCC(c2ccc(Cl)cc2)=C(CN2CCN(c3ccc(C(=O)NS(=O)(=O)c4ccc(N[C@H](CCN5CCCOCC5)CSc5ccccc5)c(S(=O)(=O)C(F)(F)F)c4)cc3)CC2)C1` (stereo partly drawn) [Compound 26, N-((4-(((R)-4-(1,4-oxazepan-4-yl)-1-(phenylthio)butan-2-yl)amino)-3-((trifluoromethyl)sulfonyl)phenyl)sulfonyl)-4-(4-(((4R)-4′-chloro-4-((4-(3-(2-(2,6-dioxopiperidin-3-yl)-1-oxoisoindolin-5-yl)prop-2-yn-1-yl)piperazin-1-yl)methyl)-4-methyl-3,4,5,6-tetrahydro-[1,1′-biphenyl]-2-yl)methyl)piperazin-1-yl)benzamide] was run?
**A.** Its pEC50 is over 9.00.

**Q.** And the pEC50 [2]?
**A.** The pEC50 was 8.00 to 9.00.

**Q.** And the pEC50 (WI-38 NC)?
**A.** The pEC50 was under 5.00.

**Q.** Which results are given for `C[C@@]1(CN2CCN(c3ccc4c(c3)CN(C3CCC(=O)NC3=O)C4=O)CC2)CCC(c2ccc(Cl)cc2)=C(CN2CCN(c3ccc(C(=O)NS(=O)(=O)c4ccc(N[C@H](CCN5CCCOCC5)CSc5ccccc5)c(S(=O)(=O)C(F)(F)F)c4)cc3)CC2)C1` (stereo partly drawn) [Compound 127, N-((4-(((R)-4-(1,4-oxazepan-4-yl)-1-(phenylthio)butan-2-yl)amino)-3-((trifluoromethyl)sulfonyl)phenyl)sulfonyl)-4-(4-(((4R)-4′-chloro-4-((4-(2-(2,6-dioxopiperidin-3-yl)-1-oxoisoindolin-5-yl)piperazin-1-yl)methyl)-4-methyl-3,4,5,6-tetrahydro-[1,1′-biphenyl]-2-yl)methyl)piperazin-1-yl)benzamide]?
**A.** pEC50 [1]: > 9.00; pEC50 [2]: > 9.00; pEC50 (WI-38 NC): < 5.00

**Q.** Which results are given for `CC(C)N(CC#Cc1ccc2c(c1)CN(C1CCC(=O)NC1=O)C2=O)C[C@]1(C)CCC(c2ccc(Cl)cc2)=C(CN2CCN(c3ccc(C(=O)NS(=O)(=O)c4ccc(N[C@H](CCN5CCCOCC5)CSc5ccccc5)c(S(=O)(=O)C(F)(F)F)c4)cc3)CC2)C1` (stereo partly drawn) [Compound 38, N-((4-(((R)-4-(1,4-oxazepan-4-yl)-1-(phenylthio)butan-2-yl)amino)-3-((trifluoromethyl)sulfonyl)phenyl)sulfonyl)-4-(4-(((4R)-4′-chloro-4-(((3-(2-(2,6-dioxopiperidin-3-yl)-1-oxoisoindolin-5-yl)prop-2-yn-1-yl) (isopropyl)amino)methyl)-4-methyl-3,4,5,6-tetrahydro-[1,1′-biphenyl]-2-yl)methyl)piperazin-1-yl)benzamide]?
**A.** pEC50 [1]: 8.00 to 9.00; pEC50 [2]: 8.00 to 9.00; pEC50 (WI-38 NC): < 5.00
